# From ChEMBL document CHEMBL4041492 (Eur J Med Chem, 2017)
# Experiments:
# [1] = molecular target: T1, Adenosine receptor A1 (Rattus norvegicus, UniProt P25099); experiment: Displacement of [3H]DPCPX from adenosine receptor A1 in rat brain membrane; format: cell membranes
# T1 sequence (P25099 whole entry): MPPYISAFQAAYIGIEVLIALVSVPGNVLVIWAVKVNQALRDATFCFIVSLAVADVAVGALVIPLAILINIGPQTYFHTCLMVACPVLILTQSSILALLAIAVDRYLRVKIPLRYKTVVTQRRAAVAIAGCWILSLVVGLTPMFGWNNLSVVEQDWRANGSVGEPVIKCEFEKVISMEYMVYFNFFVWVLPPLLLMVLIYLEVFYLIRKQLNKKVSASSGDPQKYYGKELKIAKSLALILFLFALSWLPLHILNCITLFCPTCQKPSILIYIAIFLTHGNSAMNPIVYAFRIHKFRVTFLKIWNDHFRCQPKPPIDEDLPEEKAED
# [2] = molecular target: Adenosine receptor A2a (Rattus norvegicus, UniProt P30543); experiment: Displacement of [3H]NECA from adenosine receptor A2a in rat striatial membrane; format: cell membranes
# Adenosine receptor A2a, sequence (P30543 whole entry): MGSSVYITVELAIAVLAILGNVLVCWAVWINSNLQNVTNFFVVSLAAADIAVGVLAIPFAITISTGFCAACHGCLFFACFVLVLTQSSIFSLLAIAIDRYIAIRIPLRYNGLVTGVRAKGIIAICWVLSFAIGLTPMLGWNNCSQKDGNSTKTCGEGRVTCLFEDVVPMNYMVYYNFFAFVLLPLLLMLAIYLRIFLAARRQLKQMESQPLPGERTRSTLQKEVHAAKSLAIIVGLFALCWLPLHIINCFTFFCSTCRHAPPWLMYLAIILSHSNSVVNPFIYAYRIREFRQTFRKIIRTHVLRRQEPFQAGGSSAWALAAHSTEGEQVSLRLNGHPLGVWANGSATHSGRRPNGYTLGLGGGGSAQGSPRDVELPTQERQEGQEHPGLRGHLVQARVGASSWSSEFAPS
# [3] = organism: Rattus norvegicus; experiment: Selectivity index, ratio of Ki for adenosine receptor A1 in rat brain membrane to Ki for adenosine receptor A2a in rat striatal membrane; format: cell membranes
# [4] = organism: Rattus norvegicus; experiment: Selectivity index, ratio of Ki for adenosine receptor A2a in rat striatal membrane to Ki for adenosine receptor A1 in rat brain membrane; format: cell membranes
# [5] = Antagonist activity at adenosine receptor A2a in [3H]adenine-labeled guinea pig cerebral cortical slices assessed as inhibition of 2-chloroadenosine-stimulated [3H]-cAMP accumulation; set-up: species or system Cavia porcellus
# [6] = molecular target: T1, Adenosine receptor A1; experiment: Displacement of [3H]DPCPX from adenosine receptor A1 in rat brain membrane in presence of GTP by GTP shift assay; format: cell membranes
# [7] = molecular target: T2, Adenosine receptor A1 (Rattus norvegicus) (UniProt P25099); experiment: Ratio of Ki for adenosine receptor A1 in rat brain membrane in presence of GTP to Ki for adenosine receptor A1 in rat brain membrane in absence of GTP; format: cell membranes
# T2 sequence (whole entry): T1 sequence (P25099 whole entry)
SMILES,Ki [1] [µM],Ki [2] [µM],Ratio Ki [3],Ratio Ki [4],Ki [5] [µM],Ki [6] [µM],Ratio Ki [7]
Cn1c(=O)c2c(nc(OCc3ccc(Cl)cc3)n2C)n(C)c1=O,17.4,3.31,5.3,0.2,,,
Cn1c(=O)c2c(nc(CSc3ccccc3)n2C)n(C)c1=O,4.85,3.33,1.5,0.8,,,
Cn1c(=O)c2c(nc(CSc3ccc(Cl)cc3)n2C)n(C)c1=O,20.8,1.5,13.9,0.1,,,
Cn1c(=O)c2c(nc(COc3ccc(Cl)cc3)n2C)n(C)c1=O,7.6,1.33,5.7,0.2,,,
Cn1c(=O)c2c(nc(SCc3ccc(Cl)cc3)n2C)n(C)c1=O,90,51.4,1.8,0.6,,,
Cn1c(=O)c2c(ncn2C)n(C)c1=O [CAFFEINE],,,,,50,,
Cn1c(=O)c2c(nc(SCc3ccccc3)n2C)n(C)c1=O,4.32,4.64,0.9,1.1,,,
Cn1c(=O)c2c(nc(COc3ccccc3)n2C)n(C)c1=O,,,1.3,0.8,,4.01,1.3
Cn1c(=O)c2c(nc(CCc3ccccc3)n2C)n(C)c1=O,,,1.2,0.9,,,
Cn1c(=O)c2c(nc(NCc3ccccc3)n2C)n(C)c1=O,7.95,4.5,1.8,0.6,,,
Cn1c(=O)c2c(nc(OCc3ccccc3)n2C)n(C)c1=O,1.52,4.3,0.4,2.8,,1.93,1.2
